System: C57BI/6N male mice
Test: Oral glucose tolerance test (OGTT) in C57BI/6N male mice
Assay type: in vivo
Settings: single peroral dose 60 min before glucose 2 g/kg; Z1558775684 20 mg/kg, Metformin 300 mg/kg; compared with the Vehicle-treated group; 5 mice per group
Method: Values are expressed as means of 5 animals tested. For glucose tolerance test (GTT), mice were orally treated with glucose at dose of 2 g/kg at the dose volume of 10 ml/kg after a 6-hour fasting. Glucose measurements were performed immediately before compound treatment (−60 min), at −30 min, 0 min (before glucose administration), and then 15, 30, 60, 90 and 120 min after glucose administration.
EXAMPLE 87: OGTT TESTING IN C57BI/6N MALE MICE
Each experimental group consisted of five male C57BI/6N mice. Animals were dosed once perorally with 20 mg/kg of tested compound Z1558775684. A control group was dosed with vehicle on the same schedule. Metformin at the dosage of 300 mg/kg was used as reference compound.
Compound Z1558775684 was dissolved/suspended in DMSO-PEG400-physiological saline (20%:50%:30%) at concentration 4 mg/ml. Metformin was dissolved in the same vehicle at concentration 60 mg/ml. The test samples were administered per os in the volume corresponding to 5 ml/kg body weight.
Single doses of test samples were administered 60 min before glucose treatment at 3 p.m.
The blood glucose level was measured after 6-hour fasting using Call Plus glucometer and specific test strips. Blood was obtained from the tail vein by incision of the tail tip, 5-6 μl of blood was used for each assay. […]

Row | Structure (SMILES) | glucose level during oral glucose tolerance test (OGTT)
1 | CN(C)C(=N)N=C(N)N [Metformin] | Statistically significant decrease in glucose level
2 | CCc1nc(N)nc(SCc2ncc(-c3cccc(Cl)c3)o2)n1 [Compound Z1558775684, 4-({[5-(3-chlorophenyl)-1,3-oxazol-2-yl]methyl}sulfanyl)-6-ethyl-1,3,5-triazin-2-amine] | Statistically significant decrease in glucose level
